# PubChem BioAssay AID1963858 (Molecular Pharmacology Branch, DTP, NCI, 2024)
# Tested on: HOP-62 multicell spheroids with HUVEC/MSC, viability
# Assay: Anticancer human tumor HOP-62 cell line growth inhibition [KRAS2];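 further: viability read after a week of compound exposure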;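 on viability, T/C: 100% = DMSO vehicle-treated spheroids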
# Settings: for IC50: curve of first compound; for viability, T/C: stronger effect = lower value
# Outline: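 Combination screen of spheroid viability in tumor-cell co-cultures with endothelial (HUVEC) and mesenchymal stem cell stroma. Each agent was tested in half-log dilutions, topping at clinical Cmax or at 10 microM without a known Cmax.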
# [1] = second compound 0.0316 µM, first compound 0.0316 µM
# [2] = second compound 0.0316 µM, first compound 0.1 µM
# [3] = second compound 0.0316 µM, first compound 0.316 µM
# [4] = second compound 0.0316 µM, first compound 1 µM
# [5] = second compound 0.0316 µM, first compound 3.16 µM
# [6] = second compound 0.0316 µM, first compound 10 µM
# [7] = second compound 0.1 µM, first compound 0.0316 µM
# [8] = second compound 0.1 µM, first compound 0.1 µM
# [9] = second compound 0.1 µM, first compound 0.316 µM
# [10] = second compound 0.1 µM, first compound 1 µM
# [11] = second compound 0.1 µM, first compound 3.16 µM
# [12] = second compound 0.1 µM, first compound 10 µM
# [13] = second compound 0.316 µM, first compound 0.0316 µM
# [14] = second compound 0.316 µM, first compound 0.1 µM
# [15] = second compound 0.316 µM, first compound 0.316 µM
# [16] = second compound 0.316 µM, first compound 1 µM
# [17] = second compound 0.316 µM, first compound 3.16 µM
# [18] = second compound 0.316 µM, first compound 10 µM
# [19] = second compound 1 µM, first compound 0.0316 µM
# [20] = second compound 1 µM, first compound 0.1 µM
# [21] = second compound 1 µM, first compound 0.316 µM
# [22] = second compound 1 µM, first compound 1 µM
# [23] = second compound 1 µM, first compound 3.16 µM
# [24] = second compound 1 µM, first compound 10 µM
# [25] = second compound 3.16 µM, first compound 0.0316 µM
# [26] = second compound 3.16 µM, first compound 0.1 µM
# [27] = second compound 3.16 µM, first compound 0.316 µM
# [28] = second compound 3.16 µM, first compound 1 µM
# [29] = second compound 3.16 µM, first compound 3.16 µM
# [30] = second compound 3.16 µM, first compound 10 µM
smiles,measurement,setting,value
COc1cc(Nc2ncc3c(n2)-c2ccc(Cl)cc2C(c2c(F)cccc2OC)=NC3)ccc1C(=O)O + C=CC(=O)N1CCN(c2nc(OCC3CCCN3C)nc3c2CCN(c2cccc4cccc(C)c24)C3)CC1CC#N,IC50,second compound 0.0316 µM,< 0.0316 µM
same,IC50,second compound 0.1 µM,< 0.0316 µM
same,IC50,second compound 0.316 µM,< 0.0316 µM
same,IC50,second compound 1 µM,< 0.0316 µM
same,IC50,second compound 3.16 µM,< 0.0316 µM
same,"viability, T/C",[1],42.7%
same,"viability, T/C",[2],35.9%
same,"viability, T/C",[3],32.6%
same,"viability, T/C",[4],27.1%
same,"viability, T/C",[5],19.7%
same,"viability, T/C",[6],14.6%
same,"viability, T/C",[7],35.7%
same,"viability, T/C",[8],28.9%
same,"viability, T/C",[9],25.1%
same,"viability, T/C",[10],22.3%
same,"viability, T/C",[11],17.4%
same,"viability, T/C",[12],11.7%
same,"viability, T/C",[13],24.4%
same,"viability, T/C",[14],19.5%
same,"viability, T/C",[15],17%
same,"viability, T/C",[16],14.3%
same,"viability, T/C",[17],15%
same,"viability, T/C",[18],11.3%
same,"viability, T/C",[19],20.6%
same,"viability, T/C",[20],15.5%
same,"viability, T/C",[21],16.6%
same,"viability, T/C",[22],16.3%
same,"viability, T/C",[23],13.9%
same,"viability, T/C",[24],9.29%
same,"viability, T/C",[25],10.8%
same,"viability, T/C",[26],1.27%
same,"viability, T/C",[27],4.55%
same,"viability, T/C",[28],7.12%
same,"viability, T/C",[29],1.43%
same,"viability, T/C",[30],0.67%
COc1cc2nccc(Oc3ccc(NC(=O)C4(C(=O)Nc5ccc(F)cc5)CC4)cc3)c2cc1OC + C=CC(=O)N1CCN(c2nc(OCC3CCCN3C)nc3c2CCN(c2cccc4cccc(C)c24)C3)CC1CC#N,IC50,second compound 0.0316 µM,1.91 µM
same,IC50,second compound 0.1 µM,1.06 µM
same,IC50,second compound 0.316 µM,0.0316 µM
same,IC50,second compound 1 µM,< 0.0316 µM
same,IC50,second compound 3.16 µM,< 0.0316 µM
same,"viability, T/C",[1],64.8%
same,"viability, T/C",[2],68.5%
same,"viability, T/C",[3],64%
same,"viability, T/C",[4],77.8%
same,"viability, T/C",[5],35.4%
same,"viability, T/C",[6],8.75%
same,"viability, T/C",[7],50.5%
same,"viability, T/C",[8],51.4%
same,"viability, T/C",[9],49.5%
same,"viability, T/C",[10],53.4%
same,"viability, T/C",[11],29%
same,"viability, T/C",[12],12%
same,"viability, T/C",[13],42%
same,"viability, T/C",[14],38.5%
same,"viability, T/C",[15],47.9%
same,"viability, T/C",[16],53.8%
same,"viability, T/C",[17],24.9%
same,"viability, T/C",[18],8.51%
same,"viability, T/C",[19],27.4%
same,"viability, T/C",[20],31.1%
same,"viability, T/C",[21],25.3%
same,"viability, T/C",[22],30.6%
same,"viability, T/C",[23],19.9%
same,"viability, T/C",[24],0.15%
same,"viability, T/C",[25],0.14%
same,"viability, T/C",[26],0.75%
same,"viability, T/C",[27],0.15%
same,"viability, T/C",[28],0.37%
same,"viability, T/C",[29],0.13%
same,"viability, T/C",[30],0.23%
Cn1ncnc1[C@H]1c2n[nH]c(=O)c3cc(F)cc(c23)N[C@@H]1c1ccc(F)cc1 + C=CC(=O)N1CCN(c2nc(OCC3CCCN3C)nc3c2CCN(c2cccc4cccc(C)c24)C3)CC1CC#N,IC50,second compound 0.0316 µM,> 0.1 µM
same,IC50,second compound 0.1 µM,0.00986 µM
same,IC50,second compound 0.316 µM,< 0.000316 µM
same,IC50,second compound 1 µM,< 0.000316 µM
same,IC50,second compound 3.16 µM,< 0.000316 µM
same,"viability, T/C","second compound 0.0316 µM, first compound 0.000316 µM",88.8%
same,"viability, T/C","second compound 0.0316 µM, first compound 0.001 µM",79.7%
same,"viability, T/C","second compound 0.0316 µM, first compound 0.00316 µM",82.3%
same,"viability, T/C","second compound 0.0316 µM, first compound 0.01 µM",75.7%
same,"viability, T/C",[1],74.3%
same,"viability, T/C",[2],59.7%
same,"viability, T/C","second compound 0.1 µM, first compound 0.000316 µM",64.6%
same,"viability, T/C","second compound 0.1 µM, first compound 0.001 µM",58.3%
same,"viability, T/C","second compound 0.1 µM, first compound 0.00316 µM",74%
same,"viability, T/C","second compound 0.1 µM, first compound 0.01 µM",49.8%
same,"viability, T/C",[7],41.9%
same,"viability, T/C",[8],44.7%
same,"viability, T/C","second compound 0.316 µM, first compound 0.000316 µM",48.7%
same,"viability, T/C","second compound 0.316 µM, first compound 0.001 µM",42%
same,"viability, T/C","second compound 0.316 µM, first compound 0.00316 µM",40.6%
same,"viability, T/C","second compound 0.316 µM, first compound 0.01 µM",38.5%
same,"viability, T/C",[13],30.6%
same,"viability, T/C",[14],33%
same,"viability, T/C","second compound 1 µM, first compound 0.000316 µM",32.4%
same,"viability, T/C","second compound 1 µM, first compound 0.001 µM",30.2%
same,"viability, T/C","second compound 1 µM, first compound 0.00316 µM",27.1%
same,"viability, T/C","second compound 1 µM, first compound 0.01 µM",25.7%
same,"viability, T/C",[19],24.8%
same,"viability, T/C",[20],22.1%
same,"viability, T/C","second compound 3.16 µM, first compound 0.000316 µM",0.61%
same,"viability, T/C","second compound 3.16 µM, first compound 0.001 µM",0.57%
same,"viability, T/C","second compound 3.16 µM, first compound 0.00316 µM",0.44%
same,"viability, T/C","second compound 3.16 µM, first compound 0.01 µM",0.5%
same,"viability, T/C",[25],0.51%
same,"viability, T/C",[26],0.71%
